Activity calls are given as the source filed them.
Experiments:
[1] = biological target: T1, Neuropeptide Y receptor type 1 (Homo sapiens, UniProt P25929); format: functional;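 also: HEK293 cells with a CNG channel challenged with NPY then isoproterenol; potency as antagonist that reverses NPY suppression of cAMP signal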
[2] = biological target: Luciferin 4-monooxygenase (Photinus pyralis, UniProt P08659); test: firefly luciferase enzyme inhibitors, dose response, biochemical, luminescence (AID 1891)
[3] = Luminescence Cell-Based Dose Confirmation HTS to Identify Inhibitors of Platelet Dense Granule Release. [Related pubchem assays: 1663 (Primary HTS), 1678 (Summary of Project)]; format: functional
[4] = biological target: T2, Neuropeptide Y receptor type 2 (Homo sapiens, UniProt P49146); format: functional, cell-based;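 also: HEK293 cells expressing the receptor and a CNG channel; stimulus was NPY near EC95 followed by isoproterenol to raise cAMP; antagonist potency measured as restoring cAMP signal that NPY suppresses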
[5] = NIH-3T3 fibroblast cytotoxicity, dose response, cytotoxicity control, cell-based, fluorescence, Alamar Blue, secondary assay (AID 2327); format: functional;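 also: NIH-3T3 mouse fibroblasts cultured with fluconazole at 8 µg/mL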
HEK293 [6] = test: NOD1 signaling inhibitors, primary screen, cell-based, luminescence, uHTS (AID 1578); format: functional; settings: Homo sapiens
[7] = biological target: T2, Neuropeptide Y receptor type 2; test: NPY-Y2 antagonist potency, selectivity check, dose response, counter-screen for NPY-Y1 antagonist project, cell-based (AID 1278); format: functional
HEK293 [8] = test: cells; format: functional, cell-based; settings: Homo sapiens
HEK293 [9] = test: cells; format: functional, cell-based; settings: Homo sapiens; remark: listed apart in the source
[10] = biological target: Nucleotide-binding oligomerization domain-containing protein 2 (Homo sapiens, UniProt Q9HC29); test: NOD2 signaling inhibitors, cell-based, luminescence, uHTS, HEK293 (AID 1566); format: functional
HEK293 [11] = test: NOD2 signaling inhibitors in MDP-stimulated cells, cell-based, uHTS, luminescence (AID 2001); format: functional; settings: Homo sapiens
[12] = biological target: T1, Neuropeptide Y receptor type 1; test: NPY-Y1 receptor antagonist potency, dose response, cell-based (AID 1277); format: functional
HEK293 [13] = test: cells; format: functional, cell-based; settings: Homo sapiens; remark: listed apart in the source
[14] = test system: Streptococcus sp. 'group A'; test: growth inhibition of control SK(-) GAS strain, dose response, counter-screen for streptokinase expression inhibitor project, luminescence, kanamycin, BacTiterGlo, confirmation (AID 1900); format: functional, organism-based
Streptokinase A = biological target: T3, Streptokinase A (Streptococcus pyogenes serotype M1, UniProt P10520); test: S. pyogenes streptokinase expression inhibitors, potency, dose response, plasminogen activation absorbance, OD405 (AID 1914); format: functional, Streptococcus pyogenes M1 GAS;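 also: secreted streptokinase activity via plasminogen activation per viability signal from cell pellet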
T3 sequence (P10520 whole entry): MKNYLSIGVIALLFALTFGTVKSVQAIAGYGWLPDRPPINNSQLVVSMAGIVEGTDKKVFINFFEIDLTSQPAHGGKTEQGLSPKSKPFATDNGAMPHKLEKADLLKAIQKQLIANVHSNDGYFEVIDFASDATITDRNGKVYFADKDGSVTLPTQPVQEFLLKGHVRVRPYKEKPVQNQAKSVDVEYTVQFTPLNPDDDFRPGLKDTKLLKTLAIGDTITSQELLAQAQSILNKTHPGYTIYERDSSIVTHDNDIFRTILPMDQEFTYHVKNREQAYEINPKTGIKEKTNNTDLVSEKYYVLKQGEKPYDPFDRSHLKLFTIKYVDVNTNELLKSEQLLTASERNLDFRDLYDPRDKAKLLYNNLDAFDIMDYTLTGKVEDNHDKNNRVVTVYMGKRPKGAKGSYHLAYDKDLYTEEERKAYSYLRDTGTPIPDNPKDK

[15] = enhancers of respiration in Yfh1-depleted yeast, dose response, Friedreich's ataxia, plus single-dose screen (AID 1465); format: functional;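 also: yeast depleted of Yfh1p frataxin homolog grown on glycerol needing respiration; WST-1 tetrazolium dye reduction as measure of cellular dehydrogenase metabolic activity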
Streptococcus = test: Group A Streptococcus viability loss, dose response, counter-screen for streptokinase expression inhibitor project, luminescence, BacTiterGlo (AID 1915); format: functional, organism-based;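 also: potency for reduction of bacterial viability or growth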
[16] = biological target: T4, Replicative DNA helicase DnaB (Mycobacterium tuberculosis, UniProt P9WMR3); test: DnaB intein splicing inhibitors, dose response, biochemical, cell-free fluorescence (AID 449749); format: functional
T4 sequence (P9WMR3 whole entry): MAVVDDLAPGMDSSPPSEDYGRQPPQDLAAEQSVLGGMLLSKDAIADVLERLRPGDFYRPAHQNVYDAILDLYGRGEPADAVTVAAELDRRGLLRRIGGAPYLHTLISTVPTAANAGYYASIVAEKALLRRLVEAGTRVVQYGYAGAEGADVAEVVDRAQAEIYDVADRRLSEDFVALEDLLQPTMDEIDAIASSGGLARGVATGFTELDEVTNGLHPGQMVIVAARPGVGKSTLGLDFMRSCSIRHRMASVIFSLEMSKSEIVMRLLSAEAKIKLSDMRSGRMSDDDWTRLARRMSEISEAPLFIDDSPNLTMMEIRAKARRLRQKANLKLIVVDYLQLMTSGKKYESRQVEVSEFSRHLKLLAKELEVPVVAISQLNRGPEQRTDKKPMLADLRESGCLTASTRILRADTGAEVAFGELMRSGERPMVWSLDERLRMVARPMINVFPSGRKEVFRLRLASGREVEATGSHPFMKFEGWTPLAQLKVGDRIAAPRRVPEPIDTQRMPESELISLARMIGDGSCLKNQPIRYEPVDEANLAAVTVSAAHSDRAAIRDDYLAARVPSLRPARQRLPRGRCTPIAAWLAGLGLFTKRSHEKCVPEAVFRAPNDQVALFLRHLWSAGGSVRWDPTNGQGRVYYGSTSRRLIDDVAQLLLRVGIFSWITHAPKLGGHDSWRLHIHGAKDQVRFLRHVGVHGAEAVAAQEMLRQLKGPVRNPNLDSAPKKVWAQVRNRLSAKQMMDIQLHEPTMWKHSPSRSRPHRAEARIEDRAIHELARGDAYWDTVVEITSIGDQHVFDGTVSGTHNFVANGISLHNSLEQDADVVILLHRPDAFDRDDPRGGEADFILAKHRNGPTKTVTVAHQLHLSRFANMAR

Protein RecA = biological target: T5, Protein RecA (Mycobacterium tuberculosis, UniProt P9WHJ3); test: Fluorescence Cell-Free Homogeneous Dose Retest to Identify Inhibitors of RecA-Intein Splicing Activity. [Related pubchem assays (depositor defined):AID2097, AID2223, AID489010, AID492950]; format: functional
T5 sequence (P9WHJ3 whole entry): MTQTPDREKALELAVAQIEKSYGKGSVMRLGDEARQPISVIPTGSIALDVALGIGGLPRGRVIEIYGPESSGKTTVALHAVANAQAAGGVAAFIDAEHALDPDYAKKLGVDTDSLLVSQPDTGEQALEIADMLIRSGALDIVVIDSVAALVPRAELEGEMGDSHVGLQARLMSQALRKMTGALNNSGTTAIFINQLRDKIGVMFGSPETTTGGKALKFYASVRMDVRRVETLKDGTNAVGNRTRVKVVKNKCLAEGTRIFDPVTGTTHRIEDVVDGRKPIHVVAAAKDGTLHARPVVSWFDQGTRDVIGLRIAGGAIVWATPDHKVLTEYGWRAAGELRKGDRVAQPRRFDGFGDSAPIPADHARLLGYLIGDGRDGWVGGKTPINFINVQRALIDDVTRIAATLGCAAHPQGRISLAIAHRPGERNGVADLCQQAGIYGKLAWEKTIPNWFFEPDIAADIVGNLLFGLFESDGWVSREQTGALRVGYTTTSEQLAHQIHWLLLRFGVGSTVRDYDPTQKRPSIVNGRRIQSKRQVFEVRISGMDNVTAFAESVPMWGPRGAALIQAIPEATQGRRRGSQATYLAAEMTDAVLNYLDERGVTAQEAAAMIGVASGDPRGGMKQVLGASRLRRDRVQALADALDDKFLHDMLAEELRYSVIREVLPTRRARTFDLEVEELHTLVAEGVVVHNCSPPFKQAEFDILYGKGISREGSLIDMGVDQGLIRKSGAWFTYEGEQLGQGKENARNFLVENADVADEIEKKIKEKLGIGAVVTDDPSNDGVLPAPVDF

[17] = A High Throughput Confirmatory Assay used to Identify Novel Compounds that Inhibit Mycobacterium Tuberculosis in the absence of Glycerol.; format: functional
[18] = microbe, parasite or virus in culture; format: functional; settings: Mycobacterium tuberculosis
[19] = biological target: Potassium voltage-gated channel subfamily KQT member 2 (Rattus norvegicus, UniProt O88943, W236L); test: KCNQ2 channel potentiators, dose response, mechanism study for KCNQ2 potentiator project, cell-based, automated electrophysiology (AID 2603); format: functional
Genome polyprotein = Genome polyprotein (dengue virus type 2, UniProt P29990); test: Dengue-2 NS5 methyltransferase inhibitors, primary screen, biochemical, confirmation dose response (AID 588689); format: functional
[20] = Shn3 3'UTR reporter inhibitors, dose response, cell-based, Clone20 osteoblasts, firefly luciferase, cherry-picked (AID 624132); format: functional;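 also: firefly luciferase luminescence from reporter carrying the Shn3 3'UTR in osteoblasts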
[21] = biological target: Hepatocyte nuclear factor 4-alpha (Homo sapiens, UniProt P41235); format: functional, cell-based;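 also: biochemical luminescence-based dose-response counterscreen measuring inhibition of HNF4 dimerization, run alongside a screen for blockers of ABHD5–perilipin-5 interaction; split luciferase complementation of HNF4 fusion proteins in cell lysate measuring dimerization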
[22] = reduction of Shn3 3'UTR firefly luciferase signal, dose response, Schnurri-3 inhibitor project, cell-based, Clone20 osteoblasts, cherry-pick, set 2 (AID 720490); format: functional;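 also: actives lower the luminescence signal as inhibitors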
[23] = biological target: 5-hydroxytryptamine receptor 1E (Homo sapiens, UniProt P28566); test: Counterscreen assay for S1P3 antagonists: Dose response cell-based high throughput screening assay to identify antagonists of the 5-Hydroxytryptamine Receptor Subtype 1E (5HT1E). [Related pubchem assays: 1429, 485 ]; format: functional
[24] = biological target: Sphingosine 1-phosphate receptor 3 (Homo sapiens, UniProt Q99500); test: Dose response cell-based high throughput screening assay for antagonists of the Sphingosine 1-Phosphate Receptor 3 (S1P3). [Related pubchem assays: 1429, 485 ]; format: functional
[25] = biological target: Peroxisome proliferator-activated receptor gamma/Nuclear receptor coactivator 1 (Homo sapiens, UniProt P37231); test: TR-FRET dose response biochemical High Throughput Screening assay for agonists of the steroid receptor coactivator 1 (SRC-1) recruitment by the peroxisome proliferator-activated receptor gamma (PPAR gamma): non-selective agonists. [Related pubchem assays (depositor defined):AID1300, AID1808, AID504735, AID631]; format: protein assay
[26] = biological target: Peroxisome proliferator-activated receptor gamma/Nuclear receptor coactivator 3 (Homo sapiens, UniProt P37231); test: TR-FRET dose response biochemical High Throughput Screening assay for agonists of the steroid receptor coactivator 3 (SRC-3) recruitment by the peroxisome proliferator-activated receptor gamma (PPAR gamma): non-selective agonists. [Related pubchem assays: 1301 (Confirmation screen.), 1048 (Primary screen.)]; format: functional
[27] = biological target: T6, Mannose-6-phosphate isomerase (Homo sapiens, UniProt P34949); test: inhibitors of human PMI, primary screen, biochemical, fluorescence intensity, coupled assay (AID 1209)
T6 sequence (P34949 whole entry): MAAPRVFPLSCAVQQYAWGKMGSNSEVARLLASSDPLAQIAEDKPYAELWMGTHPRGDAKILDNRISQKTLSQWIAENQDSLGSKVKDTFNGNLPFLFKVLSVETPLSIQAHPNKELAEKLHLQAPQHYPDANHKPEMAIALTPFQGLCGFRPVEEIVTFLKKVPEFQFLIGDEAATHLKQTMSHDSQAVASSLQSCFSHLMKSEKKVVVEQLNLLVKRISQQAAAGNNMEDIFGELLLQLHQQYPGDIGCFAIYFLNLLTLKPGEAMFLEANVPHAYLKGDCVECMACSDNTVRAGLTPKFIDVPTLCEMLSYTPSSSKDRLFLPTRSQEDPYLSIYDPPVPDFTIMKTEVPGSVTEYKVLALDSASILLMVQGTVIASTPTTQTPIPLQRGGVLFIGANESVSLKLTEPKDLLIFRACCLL

[28] = biological target: Peroxisome proliferator-activated receptor gamma/Nuclear receptor coactivator 2 (Homo sapiens, UniProt P37231); test: TR-FRET dose response biochemical High Throughput Screening assay for agonists of the steroid receptor coactivator 2 (SRC-2) recruitment by the peroxisome proliferator-activated receptor gamma (PPAR gamma): non-selective agonists. [Related pubchem assays: 1297, 1032 ]; format: functional
[29] = biological target: T6, Mannose-6-phosphate isomerase; test: human PMI inhibitors, high substrate, primary screen, biochemical, fluorescence intensity, high mannose 6-phosphate (AID 1220)
[30] = biological target: Glucose-6-phosphate 1-dehydrogenase (Homo sapiens, UniProt P11413); test: human G6PD enzyme inhibitors, dose response, selectivity assay for P. falciparum G6PD inhibitor project, biochemical, fluorescence (AID 504792); format: functional
HeLa = test: Cytotoxicity counterscreen assay for transcriptional activators of heat shock protein 70 (Hsp70). [Related pubchem assays: 1203, 1252 ]; format: functional; settings: Homo sapiens;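 also: cells exposed to compound for 16 hours before readout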

T1 sequence (P25929 whole entry): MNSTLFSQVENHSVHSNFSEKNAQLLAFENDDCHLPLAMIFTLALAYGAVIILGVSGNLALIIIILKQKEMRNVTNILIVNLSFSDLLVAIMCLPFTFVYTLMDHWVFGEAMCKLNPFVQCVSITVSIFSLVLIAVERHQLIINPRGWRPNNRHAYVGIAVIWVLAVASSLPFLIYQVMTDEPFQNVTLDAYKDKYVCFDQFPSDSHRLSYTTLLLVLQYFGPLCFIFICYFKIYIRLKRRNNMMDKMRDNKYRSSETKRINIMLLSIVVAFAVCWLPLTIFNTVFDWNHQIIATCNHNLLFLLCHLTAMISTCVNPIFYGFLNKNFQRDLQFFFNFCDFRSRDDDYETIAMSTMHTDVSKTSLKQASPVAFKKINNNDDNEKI
T2 sequence (P49146 whole entry): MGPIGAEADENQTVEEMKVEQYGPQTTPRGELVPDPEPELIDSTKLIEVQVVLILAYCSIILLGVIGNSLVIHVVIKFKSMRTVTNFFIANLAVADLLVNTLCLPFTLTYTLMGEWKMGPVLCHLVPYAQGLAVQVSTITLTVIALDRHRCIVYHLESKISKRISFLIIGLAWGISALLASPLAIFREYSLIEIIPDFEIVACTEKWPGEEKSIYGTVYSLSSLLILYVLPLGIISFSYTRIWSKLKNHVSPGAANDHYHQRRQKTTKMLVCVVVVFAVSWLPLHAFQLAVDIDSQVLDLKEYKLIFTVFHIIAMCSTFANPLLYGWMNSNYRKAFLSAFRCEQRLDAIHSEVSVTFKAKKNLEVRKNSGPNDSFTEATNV
Sphingosine 1-phosphate receptor 3, sequence (Q99500 whole entry): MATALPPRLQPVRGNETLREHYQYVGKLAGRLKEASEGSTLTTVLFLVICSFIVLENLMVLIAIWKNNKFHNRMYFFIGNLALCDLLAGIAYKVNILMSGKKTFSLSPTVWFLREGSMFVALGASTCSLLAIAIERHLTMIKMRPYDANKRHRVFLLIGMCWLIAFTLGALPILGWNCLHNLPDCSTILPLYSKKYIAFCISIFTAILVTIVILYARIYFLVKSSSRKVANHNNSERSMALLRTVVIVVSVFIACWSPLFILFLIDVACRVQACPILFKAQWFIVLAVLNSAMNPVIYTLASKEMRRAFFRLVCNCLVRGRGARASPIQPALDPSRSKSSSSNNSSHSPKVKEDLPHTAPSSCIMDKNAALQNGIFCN
Genome polyprotein, sequence (P29990 2492-3391 limits assumed): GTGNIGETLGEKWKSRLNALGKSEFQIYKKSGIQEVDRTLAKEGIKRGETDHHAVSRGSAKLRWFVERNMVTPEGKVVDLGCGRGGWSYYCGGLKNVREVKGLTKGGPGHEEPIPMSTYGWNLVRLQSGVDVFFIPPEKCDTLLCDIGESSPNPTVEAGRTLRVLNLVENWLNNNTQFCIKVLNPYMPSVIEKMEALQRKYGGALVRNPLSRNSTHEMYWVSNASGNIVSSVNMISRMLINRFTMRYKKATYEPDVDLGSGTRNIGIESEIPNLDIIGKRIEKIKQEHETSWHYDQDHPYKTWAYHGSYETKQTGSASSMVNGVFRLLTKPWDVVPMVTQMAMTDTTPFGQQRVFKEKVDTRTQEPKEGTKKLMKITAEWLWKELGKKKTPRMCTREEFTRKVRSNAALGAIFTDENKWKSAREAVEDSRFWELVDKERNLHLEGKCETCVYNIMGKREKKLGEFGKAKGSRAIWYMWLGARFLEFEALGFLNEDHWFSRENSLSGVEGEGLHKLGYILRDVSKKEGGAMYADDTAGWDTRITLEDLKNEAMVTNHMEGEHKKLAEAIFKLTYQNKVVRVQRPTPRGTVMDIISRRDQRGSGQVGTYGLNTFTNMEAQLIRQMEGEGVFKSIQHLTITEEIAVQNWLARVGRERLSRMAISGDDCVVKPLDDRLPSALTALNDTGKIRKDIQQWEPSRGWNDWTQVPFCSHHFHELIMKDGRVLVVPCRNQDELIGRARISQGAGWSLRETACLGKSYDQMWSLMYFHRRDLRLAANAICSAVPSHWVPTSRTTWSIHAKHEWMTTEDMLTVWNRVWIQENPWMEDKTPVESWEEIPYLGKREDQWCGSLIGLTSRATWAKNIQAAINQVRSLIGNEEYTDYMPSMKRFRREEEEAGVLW
Hepatocyte nuclear factor 4-alpha, sequence (P41235 whole entry, the tested form may be a part): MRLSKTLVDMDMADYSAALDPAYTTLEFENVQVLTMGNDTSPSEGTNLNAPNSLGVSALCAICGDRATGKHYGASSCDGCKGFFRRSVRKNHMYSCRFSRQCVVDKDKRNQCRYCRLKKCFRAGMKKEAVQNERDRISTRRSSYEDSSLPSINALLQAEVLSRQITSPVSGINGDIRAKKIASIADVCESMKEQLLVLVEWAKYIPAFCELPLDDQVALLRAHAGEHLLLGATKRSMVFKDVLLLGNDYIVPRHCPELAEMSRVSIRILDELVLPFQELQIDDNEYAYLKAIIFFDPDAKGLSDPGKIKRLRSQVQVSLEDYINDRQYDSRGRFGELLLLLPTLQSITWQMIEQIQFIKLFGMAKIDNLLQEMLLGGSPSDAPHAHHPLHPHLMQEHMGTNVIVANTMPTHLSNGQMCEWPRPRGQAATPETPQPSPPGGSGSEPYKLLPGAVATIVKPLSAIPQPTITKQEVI
Nucleotide-binding oligomerization domain-containing protein 2, sequence (Q9HC29 whole entry, the tested form may be a part): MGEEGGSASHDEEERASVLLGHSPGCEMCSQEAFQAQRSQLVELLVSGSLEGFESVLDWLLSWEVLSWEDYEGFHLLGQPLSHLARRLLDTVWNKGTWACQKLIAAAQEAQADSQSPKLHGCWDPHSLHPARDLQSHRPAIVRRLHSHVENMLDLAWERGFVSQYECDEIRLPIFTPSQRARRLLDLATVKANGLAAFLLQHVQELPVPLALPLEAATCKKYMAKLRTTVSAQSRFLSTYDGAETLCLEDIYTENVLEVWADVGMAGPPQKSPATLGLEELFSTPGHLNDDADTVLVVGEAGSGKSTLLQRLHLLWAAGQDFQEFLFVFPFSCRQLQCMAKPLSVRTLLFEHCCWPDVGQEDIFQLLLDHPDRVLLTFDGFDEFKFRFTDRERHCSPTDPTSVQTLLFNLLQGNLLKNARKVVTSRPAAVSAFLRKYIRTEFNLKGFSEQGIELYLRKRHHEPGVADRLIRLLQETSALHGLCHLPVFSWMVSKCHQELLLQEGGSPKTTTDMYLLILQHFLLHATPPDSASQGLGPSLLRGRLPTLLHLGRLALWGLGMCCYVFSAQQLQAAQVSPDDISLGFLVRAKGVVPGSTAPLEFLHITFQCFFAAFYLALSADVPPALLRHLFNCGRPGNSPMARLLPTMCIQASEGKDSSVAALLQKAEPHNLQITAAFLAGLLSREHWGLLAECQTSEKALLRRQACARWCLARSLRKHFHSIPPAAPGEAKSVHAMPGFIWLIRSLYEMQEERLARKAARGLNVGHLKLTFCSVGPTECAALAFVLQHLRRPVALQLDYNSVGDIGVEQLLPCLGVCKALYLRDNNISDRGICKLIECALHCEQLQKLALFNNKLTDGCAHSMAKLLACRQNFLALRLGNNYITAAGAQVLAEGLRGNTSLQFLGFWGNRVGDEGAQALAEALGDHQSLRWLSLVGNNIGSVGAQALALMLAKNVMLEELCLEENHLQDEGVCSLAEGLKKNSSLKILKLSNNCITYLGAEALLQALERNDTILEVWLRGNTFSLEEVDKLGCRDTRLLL
5-hydroxytryptamine receptor 1E, sequence (P28566 whole entry): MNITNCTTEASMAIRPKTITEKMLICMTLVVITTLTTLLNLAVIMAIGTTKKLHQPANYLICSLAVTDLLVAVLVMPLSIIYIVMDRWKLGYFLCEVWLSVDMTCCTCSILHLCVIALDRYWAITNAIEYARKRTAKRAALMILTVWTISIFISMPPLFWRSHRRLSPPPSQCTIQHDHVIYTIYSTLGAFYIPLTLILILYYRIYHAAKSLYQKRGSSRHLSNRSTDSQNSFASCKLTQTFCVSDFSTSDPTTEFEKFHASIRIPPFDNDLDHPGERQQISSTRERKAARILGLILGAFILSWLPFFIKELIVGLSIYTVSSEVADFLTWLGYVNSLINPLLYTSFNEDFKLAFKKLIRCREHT
Luciferin 4-monooxygenase, sequence (P08659 whole entry): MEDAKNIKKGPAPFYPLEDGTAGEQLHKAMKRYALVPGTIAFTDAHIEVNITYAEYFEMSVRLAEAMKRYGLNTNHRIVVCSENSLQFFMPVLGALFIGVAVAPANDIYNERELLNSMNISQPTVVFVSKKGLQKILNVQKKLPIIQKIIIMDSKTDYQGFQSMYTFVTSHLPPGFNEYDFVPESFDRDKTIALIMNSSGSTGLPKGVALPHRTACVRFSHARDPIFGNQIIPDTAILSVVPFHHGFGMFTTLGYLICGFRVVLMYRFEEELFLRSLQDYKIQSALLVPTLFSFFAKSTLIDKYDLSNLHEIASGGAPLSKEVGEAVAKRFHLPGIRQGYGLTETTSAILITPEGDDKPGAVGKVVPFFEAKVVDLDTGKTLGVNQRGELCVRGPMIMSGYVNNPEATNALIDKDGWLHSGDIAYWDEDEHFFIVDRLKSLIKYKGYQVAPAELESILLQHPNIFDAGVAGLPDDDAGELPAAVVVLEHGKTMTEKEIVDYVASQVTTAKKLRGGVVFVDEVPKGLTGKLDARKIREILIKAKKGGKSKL
Glucose-6-phosphate 1-dehydrogenase, sequence (P11413 whole entry): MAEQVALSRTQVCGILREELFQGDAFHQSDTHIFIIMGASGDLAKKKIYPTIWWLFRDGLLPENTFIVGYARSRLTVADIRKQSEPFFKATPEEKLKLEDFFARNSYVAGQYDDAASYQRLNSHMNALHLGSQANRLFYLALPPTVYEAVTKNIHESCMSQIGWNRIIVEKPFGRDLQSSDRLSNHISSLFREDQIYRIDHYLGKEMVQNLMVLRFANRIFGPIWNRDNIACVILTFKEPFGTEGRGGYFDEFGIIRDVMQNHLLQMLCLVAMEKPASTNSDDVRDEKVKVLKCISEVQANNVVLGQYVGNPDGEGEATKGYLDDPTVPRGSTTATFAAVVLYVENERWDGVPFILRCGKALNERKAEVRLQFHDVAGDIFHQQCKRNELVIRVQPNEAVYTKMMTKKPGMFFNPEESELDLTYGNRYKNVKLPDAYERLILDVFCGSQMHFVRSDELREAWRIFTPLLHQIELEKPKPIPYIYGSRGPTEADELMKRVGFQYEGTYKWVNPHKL

COc1cc(/C=N/NC(N)=O)ccc1OCC(=O)Nc1ccc(C)c(C)c1
IC50 [1]: > 35 µM (not active) | EC50 [2]: > 112 µM (not active) | EC50 [3]: 11.4 µM (active) | IC50 [4]: 9.83 µM (active)

CC1(C)CC(N2CCCCCC2)=CC(=[N+]2CCCC2)C1
EC50 [5]: > 150 µM (inactive) | EC50 (HEK293 [6]): 4.99 µM (active) | IC50 [7]: > 35 µM (not active) | IC50 (HEK293 [8]): 8.01 µM (active) | IC50 (HEK293 [9]): > 20 µM (inactive) | EC50 [10]: 17.5 µM (active) | IC50 (HEK293 [11]): 16.4 µM (inactive) | IC50 [12]: > 35 µM (not active) | IC50 (HEK293 [13]): > 20 µM (inactive)

N#C/C(=N\Nc1ccc(S(=O)(=O)N2CCc3ccccc32)cc1)C(N)=S
EC50 [14]: 14.5 µM (active) | EC50 (Streptokinase A): > 150 µM (not active) | EC50 [15]: > 100 µM (active) | EC50 (Streptococcus): 40 µM (active) | AC50 [16]: 2.32 µM (active) | EC50 (Protein RecA): 31.7 µM (active)

CC(C)NC(=S)N/N=C/c1c[nH]c2ccccc12
IC50 [17]: > 100 µM (active) | CC50 [18]: > 40 µM (active)

CCSc1nnc(NC(=O)c2nc(S(=O)(=O)Cc3ccc(F)cc3)ncc2Cl)s1
EC50 [19]: 38.9 µM (active) | AC50 [16]: 0.419 µM (inconclusive) | EC50 (Protein RecA): 1.08 µM (inconclusive) | IC50 (Genome polyprotein): 41.5 µM (active) | AC50 [20]: 4.96 µM (active) | IC50 [21]: 5.51 µM (active) | AC50 [22]: 1.68 µM (active)

Cc1ccc(NC(=O)C(c2ccccc2)C2CCCC2)cc1 (configuration not stated)
IC50 [23]: 7.06 µM (active) | IC50 [24]: 2.43 µM (active)

Cc1cccc(-n2c(=S)[nH]c3sc4c(c3c2=O)CCc2ccccc2-4)c1
EC50 [25]: > 79.4 µM (inactive) | EC50 [26]: > 79.4 µM (not active) | IC50 [27]: 36.3 µM (active) | EC50 [28]: > 79.4 µM (not active) | IC50 [29]: > 50 µM (not active) | IC50 [30]: > 80 µM (inactive)

CC(CC1CC(C)(C)OC1=O)C(=O)Nc1ccc([N+](=O)[O-])cc1 (configuration not stated)
CC50 (HeLa): > 99 µM (not active)
